Experimental data published in ChEMBL document CHEMBL3352126, “Bahamaolide A from the marine-derived Streptomyces sp. CNQ343 inhibits isocitrate lyase in Candida albicans” (Bioorg Med Chem Lett, 2014).
Converted amounts (≈) assume the structure as drawn. The source made the active and inactive calls. No cut-off for these calls is given here.

Key:
Isocitrate lyase = Isocitrate lyase (Candida albicans, UniProt Q9P8Q7); experiment: Inhibition of Candida albicans ATCC 10231 isocitrate lyase
Candida albicans [1] = experiment: Antifungal activity against Candida albicans SC5314 in YNB broth containing 2% glucose as sole carbon source after 72 hrs by broth dilution assay; format: functional; conditions: SC5314, 72 h
Candida albicans [2] = experiment: Antifungal activity against Candida albicans ATCC 10231 in YNB broth containing 2% glucose as sole carbon source after 72 hrs by broth dilution assay; format: functional; conditions: ATCC 10231, 72 h
Candida albicans [3] = experiment: Antifungal activity against Candida albicans ATCC 10259 in YNB broth containing 2% glucose as sole carbon source after 72 hrs by broth dilution assay; format: functional; conditions: ATCC 10259, 72 h
Candida albicans [4] = experiment: Antifungal activity against Candida albicans ATCC 11006 in YNB broth containing 2% glucose as sole carbon source after 72 hrs by broth dilution assay; format: functional; conditions: ATCC 11006, 72 h
Candida albicans [5] = experiment: Antifungal activity against Candida albicans ATCC 18804 in YNB broth containing 2% glucose as sole carbon source after 72 hrs by broth dilution assay; format: functional; conditions: ATCC 18804, 72 h
Candida albicans [6] = experiment: Antifungal activity against Candida albicans SC5314 in YNB broth containing 2% potassium acetate as sole carbon source after 72 hrs by broth dilution assay; format: functional; conditions: SC5314, 72 h
Candida albicans [7] = experiment: Antifungal activity against Candida albicans ATCC 10231 in YNB broth containing 2% potassium acetate as sole carbon source after 72 hrs by broth dilution assay; format: functional; conditions: ATCC 10231, 72 h
Candida albicans [8] = experiment: Antifungal activity against Candida albicans ATCC 10259 in YNB broth containing 2% potassium acetate as sole carbon source after 72 hrs by broth dilution assay; format: functional; conditions: ATCC 10259, 72 h
Candida albicans [9] = experiment: Antifungal activity against Candida albicans ATCC 11006 in YNB broth containing 2% potassium acetate as sole carbon source after 72 hrs by broth dilution assay; format: functional; conditions: ATCC 11006, 72 h
Candida albicans [10] = experiment: Antifungal activity against Candida albicans ATCC 18804 in YNB broth containing 2% potassium acetate as sole carbon source after 72 hrs by broth dilution assay; format: functional; conditions: ATCC 18804, 72 h
Candida albicans [11] = experiment: Antifungal activity against Candida albicans SC5314 in YNB broth containing 2% glucose as sole carbon source at 3.12 ug/mL after 72 hrs by broth dilution assay; format: functional, organism-based
Candida albicans [12] = experiment: Antifungal activity against Candida albicans MRC10 (deltaicl) in YNB broth containing 2% potassium acetate as sole carbon source at 3.12 ug/mL after 72 hrs by broth dilution assay; format: functional, organism-based
Candida albicans [13] = experiment: Antifungal activity against Candida albicans Candida albicans MRC11 (deltaicl + ICL) in YNB broth containing 2% potassium acetate as sole carbon source at 3.12 ug/mL after 72 hrs by broth dilution assay; format: functional, organism-based
Candida albicans [14] = experiment: Inhibition of ICL mRNA expression in Candida albicans SC5314 in YNB broth containing 2% potassium acetate as sole carbon source at 3.12 ug/mL after 48 hrs by real time RT-PCR method; format: functional
Candida albicans [15] = experiment: Inhibition of ICL mRNA expression in Candida albicans MRC10 (deltaicl) in YNB broth containing 2% potassium acetate as sole carbon source at 3.12 ug/mL after 48 hrs by real time RT-PCR method; format: functional, organism-based
Candida albicans [16] = experiment: Inhibition of ICL mRNA expression in Candida albicans MRC11 (deltaicl + ICL) in YNB broth containing 2% potassium acetate as sole carbon source at 3.12 ug/mL after 48 hrs by real time RT-PCR method; format: functional, organism-based

Chain of Isocitrate lyase (Q9P8Q7 whole entry): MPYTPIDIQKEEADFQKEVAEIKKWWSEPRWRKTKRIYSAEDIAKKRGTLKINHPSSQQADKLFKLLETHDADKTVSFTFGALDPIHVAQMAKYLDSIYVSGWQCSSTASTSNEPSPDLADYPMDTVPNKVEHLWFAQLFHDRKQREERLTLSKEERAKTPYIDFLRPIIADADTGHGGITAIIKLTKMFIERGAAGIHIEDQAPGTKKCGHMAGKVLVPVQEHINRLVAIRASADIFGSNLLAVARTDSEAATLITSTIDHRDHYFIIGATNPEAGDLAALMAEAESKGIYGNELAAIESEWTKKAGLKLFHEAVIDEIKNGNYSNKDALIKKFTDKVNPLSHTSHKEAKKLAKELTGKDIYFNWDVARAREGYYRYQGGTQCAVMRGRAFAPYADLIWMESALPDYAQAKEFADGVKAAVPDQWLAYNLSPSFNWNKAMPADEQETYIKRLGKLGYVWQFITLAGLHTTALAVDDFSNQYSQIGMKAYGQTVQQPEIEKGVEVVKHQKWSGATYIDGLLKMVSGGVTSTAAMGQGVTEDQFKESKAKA

SMILES	IC50 (Isocitrate lyase) [µM]	MIC (Candida albicans [1]) [µg/mL]	MIC (Candida albicans [2]) [µg/mL]	MIC (Candida albicans [3]) [µg/mL]	MIC (Candida albicans [4]) [µg/mL]	MIC (Candida albicans [5]) [µg/mL]	MIC (Candida albicans [6]) [µg/mL]	MIC (Candida albicans [7]) [µg/mL]	MIC (Candida albicans [8]) [µg/mL]	MIC (Candida albicans [9]) [µg/mL]	MIC (Candida albicans [10]) [µg/mL]	growth inhibition (GI) (Candida albicans [11])	growth inhibition (GI) (Candida albicans [12])	growth inhibition (GI) (Candida albicans [13])	fold change (FC) (Candida albicans [14])	inhibition (Candida albicans [15])	inhibition (Candida albicans [16])
O=C(O)CC[N+](=O)[O-]	17.3																
C[C@@H]1[C@H](O)[C@@H](C)/C=C/C=C/C=C/C=C/C=C/C=C/C=C/[C@H](O[C@@H]2O[C@H](C)[C@@H](O)[C@H](N)[C@@H]2O)C[C@@H]2O[C@](O)(C[C@@H](O)C[C@@H](O)[C@H](O)CC[C@@H](O)C[C@@H](O)CC(=O)O[C@H]1C)C[C@H](O)[C@H]2C(=O)O [AMPHOTERICIN B]		1.56 (≈ 1.69 µM)	1.56 (≈ 1.69 µM)	3.12 (≈ 3.38 µM)	1.56 (≈ 1.69 µM)	1.56 (≈ 1.69 µM)	0.39 (≈ 0.422 µM)	0.78 (≈ 0.844 µM)	1.56 (≈ 1.69 µM)	0.78 (≈ 0.844 µM)	0.78 (≈ 0.844 µM)						
CC(C)[C@@H]1OC(=O)/C=C/C=C/C=C/C=C/C=C/C=C/C[C@@H](O)C[C@H](O)C[C@H](O)C[C@H](O)C[C@@H](O)C[C@H](O)C[C@@H](O)C[C@@H](O)C[C@@H](O)CC[C@@H]1C [BAHAMAOLIDE A]	11.8	25 (≈ 35.3 µM)	25 (≈ 35.3 µM)	25 (≈ 35.3 µM)	12.5 (≈ 17.6 µM)	25 (≈ 35.3 µM)	3.12 (≈ 4.4 µM)	3.12 (≈ 4.4 µM)	3.12 (≈ 4.4 µM)	1.56 (≈ 2.2 µM)	3.12 (≈ 4.4 µM)	inactive	Active	Active	5	Active	Active
